Among the data in US20260364080A1, “PYRAZOLO-PYRIMIDINONE COMPOUNDS FOR USE IN METHODS OF INHIBITING WEE1 A KINASE” (Acrivon Therapeutics, Inc., priority 2023, published 2026) are IC50 and EC50 values, retold here.

The target in test [1] is T1, recombinant human Wee1A kinase (Homo sapiens, UniProt P30291).
T1 construct: full length Wee1 kinase was expressed by baculovirus in insect cells; purchased Invitrogen PV3817; host or cells: insect cells (baculovirus)
In words: Wee1A kinase binding assay (LanthaScreen Eu time-resolved FRET). In outline: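 Full-length, baculovirus-expressed GST-tagged Wee1A (5 nM) was mixed with 2 nM Eu-anti-GST antibody, 30 nM kinase tracer 178 and compound (1% DMSO). Buffer was 50 mM HEPES pH 7.5, 10 mM MgCl2, 1 mM EGTA, 0.01% Brij-35, incubated 60 min at room temperature. TR-FRET 665/615 nm emission ratios from duplicates were curve-fitted.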
On the technique in general: Time-resolved FRET reads energy transfer from a long-lived donor to a nearby acceptor.

Test [2] has as its target T2, Myt1 kinase (recombinant PMYT-1) (Homo sapiens, UniProt Q99640).
T2 construct: full length PMYT-1 was expressed by baculovirus in insect cells; purchased Invitrogen A30984; host or cells: insect cells (baculovirus)
T2 sequence (Q99640 1-499): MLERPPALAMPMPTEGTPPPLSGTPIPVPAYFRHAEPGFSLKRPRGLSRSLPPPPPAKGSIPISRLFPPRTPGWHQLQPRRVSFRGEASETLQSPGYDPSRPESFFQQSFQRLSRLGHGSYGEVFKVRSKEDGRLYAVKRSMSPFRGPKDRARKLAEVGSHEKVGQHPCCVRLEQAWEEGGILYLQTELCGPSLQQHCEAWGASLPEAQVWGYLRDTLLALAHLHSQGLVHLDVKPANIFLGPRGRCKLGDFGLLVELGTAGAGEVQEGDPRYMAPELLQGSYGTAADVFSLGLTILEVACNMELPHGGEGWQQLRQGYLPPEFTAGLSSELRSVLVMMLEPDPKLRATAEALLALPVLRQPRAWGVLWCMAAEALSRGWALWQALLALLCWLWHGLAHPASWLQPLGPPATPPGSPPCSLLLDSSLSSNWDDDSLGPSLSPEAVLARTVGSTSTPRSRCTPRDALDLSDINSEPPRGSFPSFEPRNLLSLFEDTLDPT
Description: Myt1 kinase binding assay (LanthaScreen Eu Kinase Binding Assay). A digest of the protocol:
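The binding affinity of compounds for Myt1 kinase was measured with a LanthaScreen Europium (Eu) Kinase Binding Assay, a time-resolved FRET format in which test compounds compete against a labeled kinase tracer, and the results were expressed as IC50 values describing compound binding to Myt1.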

The target of test [3] is T3, Wee1A kinase (CDK1 Tyr15 phosphorylation in ACHN renal cell carcinoma cells) (Homo sapiens, UniProt P30291).
T3 construct: pCDK1 Tyr15 immunofluorescence read-out
T3 sequence (P30291 whole entry): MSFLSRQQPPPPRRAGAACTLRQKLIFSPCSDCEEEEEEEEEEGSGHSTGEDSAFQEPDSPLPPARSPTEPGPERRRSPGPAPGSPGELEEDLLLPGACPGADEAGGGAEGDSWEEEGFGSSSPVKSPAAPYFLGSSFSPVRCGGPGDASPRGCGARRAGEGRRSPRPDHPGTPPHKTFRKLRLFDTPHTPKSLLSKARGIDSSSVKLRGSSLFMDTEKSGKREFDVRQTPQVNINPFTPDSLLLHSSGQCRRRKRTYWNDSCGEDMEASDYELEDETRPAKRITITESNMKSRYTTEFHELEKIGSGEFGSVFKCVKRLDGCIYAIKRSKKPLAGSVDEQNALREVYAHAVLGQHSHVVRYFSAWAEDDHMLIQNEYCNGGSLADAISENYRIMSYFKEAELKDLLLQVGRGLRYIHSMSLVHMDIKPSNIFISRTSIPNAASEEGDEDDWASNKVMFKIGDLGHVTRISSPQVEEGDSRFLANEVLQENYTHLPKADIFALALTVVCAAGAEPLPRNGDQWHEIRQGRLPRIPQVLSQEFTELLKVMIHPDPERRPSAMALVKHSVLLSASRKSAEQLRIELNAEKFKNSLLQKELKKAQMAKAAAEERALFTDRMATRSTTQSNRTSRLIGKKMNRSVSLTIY
Description: High-content imaging of pCdk1 Y15, Wee1A kinase target engagement in ACHN cells. The format is cell-based. A digest of the protocol: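 ACHN cells exposed to compound for 4 h over 7–5,000 nM or 0.3–200 nM, then fixed and immunostained for pCDK1 Y15 with DAPI nuclear counterstain. The percentage of pCdk1 Y15 nucleus-positive cells relative to DMSO control was imaged per well; EC50 from dose-response curves.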

Where [4] appears, read: 30 nM tracer 178, 5 nM Wee1A kinase, 2 nM Eu-labeled antibody, 60 minutes at room temperature, read-out: Wee1A kinase Binding IC50.
[5] abbreviates: 3 nM tracer 178, 2.5 nM PMYT-1, 1 nM Eu-labeled antibody, read-out: Myt1 kinase Binding IC50.
Where [6] appears, read: 4 h treatment, nuclear positivity for pCdk1 Y15 vs DMSO control, read-out: CDK1 Tyr15 Phosphorylation EC50.
Setting [7] is: Myt1 kinase Binding IC50, 3 nM tracer 178, 2.5 nM PMYT-1, 1 nM Eu-labeled antibody.
Where [8] appears, read: read-out: CDK1 Tyr15 Phosphorylation EC50, 4 h treatment, nuclear positivity for pCdk1 Y15 vs DMSO control.

Like-named read-outs stand apart in the source and are kept apart here.

For orientation: IC50 means the point on the concentration scale where inhibition reaches its midpoint. Broadly, the EC50 is the concentration giving half of the maximal effect.

T1 sequence (P30291 whole entry): as above

Turning to `C=CCn1c(=O)c2cnc(Nc3ccc4c(cnn4C)c3)nc2n1-c1cccc(O[C@@H]2CCN(C)[C@H](C)C2)n1` (stereo in doubt) [Compound 382, 2-allyl-1-(6-(((2R,4R)-1,2-dimethylpiperidin-4-yl)oxy)pyridin-2-yl)-6-((1-methyl-1H-indazol-5-yl)amino)-1,2-dihydro-3H-pyrazolo[3,4-d]pyrimidin-3-one], the IC50 in test [1] (setting [4]) was < 0.01 µM; in test [2] (setting [5]), 0.1 to 0.5 µM. For the same compound, in test [3] (setting [6]), the EC50 was < 0.1 µM.

As to `CCn1c(=O)c2cnc(Nc3ccc(-c4ccccc4)cc3)nc2n1-c1cccc(OC2CCN(C)CC2)n1` [Compound 284, 6-(4-biphenylylamino)-2-ethyl-1-[6-(1-methyl-4-piperidyloxy)-2-pyridyl]-1,2-dihydro-3H-1,2,5,7-tetraazainden-3-one], the IC50 in test [1] (setting [4]) was < 0.01 µM; in test [2] (setting [5]) it was < 0.02 µM. The EC50 in test [3] (setting [6]) is 0.1 to 0.5 µM.

Take `CCn1c(=O)c2cnc(Nc3cnn(C)c3)nc2n1-c1cccc(OC2CCN(C)CC2)n1` [Compound 132, 2-ethyl-1-[6-(1-methyl-4-piperidyloxy)-2-pyridyl]-6-(1-methyl-4-pyrazolylamino)-1,2-dihydro-3H-1,2,5,7-tetraazainden-3-one]: the IC50 in test [1] (setting [4]) is < 0.01 µM; in test [2] (setting [5]), 0.1 to 0.5 µM. Also, the EC50 in test [3] (setting [6]) lay within 0.1 to 0.5 µM.

On to `C=CCn1c(=O)c2cnc(Nc3ccc(Cl)cc3)nc2n1-c1cccc(O[C@H]2CCN(C)C2)n1` [Compound 148, 1-{6-[(S)-1-methyl-3-pyrrolidinyloxy]-2-pyridyl}-2-allyl-6-(p-chlorophenylamino)-1,2-dihydro-3H-1,2,5,7-tetraazainden-3-one], for which the IC50 in test [1] (setting [4]) is < 0.01 µM; in test [2] (setting [5]) it was 0.02 to 0.1 µM. Further, the EC50 in test [3] (setting [6]) lay in the range of 0.1 to 0.5 µM.

For `C=CCn1c(=O)c2cnc(Nc3ccc4[nH]nc(C)c4c3)nc2n1-c1cccc(OC2CCNCC2)n1` [Compound 345, 2-allyl-6-((3-methyl-1H-indazol-5-yl)amino)-1-(6-(piperidin-4-yloxy)pyridin-2-yl)-1,2-dihydro-3H-pyrazolo[3,4-d]pyrimidin-3-one], the values for the IC50 in test [1] (setting [4]) and in test [2] (setting [5]) were < 0.01 µM and 0.02 to 0.1 µM, respectively. In addition, the EC50 in test [3] (setting [6]) lay in the range of 0.5 to 1 µM.

`C=CCn1c(=O)c2cnc(Nc3cnn(C)c3)nc2n1-c1cccc(N(C)C2CCN(C)CC2)n1` [Compound 184, 1-{6-[methyl(1-methylpiperidin-4-yl)amino]pyridin-2-yl}-6-[(1-methyl-1H-pyrazol-4-yl)amino]-2-(prop-2-en-1-yl)-1H,2H,3H-pyrazolo[3,4-d]pyrimidin-3-one]: the IC50 in test [1] is < 0.01 µM; in test [2] (setting [7]) it was > 0.5 µM. In addition, the EC50 in test [3] (setting [8]) is 0.1 to 0.5 µM.

Regarding `C=CCn1c(=O)c2cnc(Nc3cnn(CCC)c3)nc2n1-c1cccc(N(C)C2CCN(C)CC2)n1` [Compound 177, 1-{6-[N-methyl(1-methyl-4-piperidyl)amino]-2-pyridyl}-2-allyl-6-(1-propyl-4-pyrazolylamino)-1,2-dihydro-3H-1,2,5,7-tetraazainden-3-one], the IC50 in test [1] was < 0.01 µM; in test [2] (setting [7]), > 0.5 µM. In addition, the EC50 in test [3] (setting [8]) lay within 0.1 to 0.5 µM.

Turning to `CCn1c(=O)c2cnc(Nc3cccc(-c4ccccc4)c3)nc2n1-c1cccc(OC2CCN(C)CC2)n1` [Compound 339, 6-(3-biphenylylamino)-2-ethyl-1-[6-(1-methyl-4-piperidyloxy)-2-pyridyl]-1,2-dihydro-3H-1,2,5,7-tetraazainden-3-one], the IC50 in test [1] (setting [4]) was < 0.01 µM; in test [2] (setting [5]), 0.02 to 0.1 µM. Besides, the EC50 in test [3] (setting [6]) was > 1 µM.

Regarding `C=CCn1c(=O)c2cnc(Nc3ccc(OCC(F)(F)F)cc3)nc2n1-c1ccnc(OC2CCN(C3COC3)CC2)n1` [Compound 371, 2-allyl-1-(2-((1-(oxetan-3-yl)piperidin-4-yl)oxy)pyrimidin-4-yl)-6-((4-(2,2,2-trifluoroethoxy)phenyl)amino)-1,2-dihydro-3H-pyrazolo[3,4-d]pyrimidin-3-one], the IC50 in test [1] (setting [4]) is < 0.01 µM; in test [2] (setting [5]) it was 0.1 to 0.5 µM. Further, the 50% effective concentration (EC50) in test [3] (setting [6]) was < 0.1 µM.

Consider `C=CCn1c(=O)c2cnc(Nc3cccc(-n4cccn4)c3)nc2n1-c1cccc(OC2CCNCC2)n1` [Compound 363, 2-allyl-1-[6-(4-piperidyloxy)-2-pyridyl]-6-[m-(1-pyrazolyl)phenylamino]-1,2-dihydro-3H-1,2,5,7-tetraazainden-3-one], for which the half-maximal inhibitory concentration (IC50) in test [1] (setting [4]) was < 0.01 µM; in test [2] (setting [5]), 0.02 to 0.1 µM. For the same compound, the EC50 in test [3] (setting [6]) fell in the range of 0.1 to 0.5 µM.

Take `C=CCn1c(=O)c2cnc(Nc3ccc(OCCF)cc3)nc2n1-c1ccnc(OC2CCNCC2)n1` [Compound 391, 2-allyl-6-((4-(2-fluoroethoxy)phenyl)amino)-1-(2-(piperidin-4-yloxy)pyrimidin-4-yl)-1,2-dihydro-3H-pyrazolo[3,4-d]pyrimidin-3-one]: the values for the concentration for half-maximal inhibition (IC50) in test [1] (setting [4]) and in test [2] (setting [5]) were < 0.01 µM and 0.02 to 0.1 µM, respectively. In test [3] (setting [6]), the EC50 is 0.1 to 0.5 µM.

As to `C=CCn1c(=O)c2cnc(Nc3cnn(CCC)c3)nc2n1-c1cccc(OC2CCNCC2)n1` [Compound 179, 2-allyl-1-[6-(4-piperidyloxy)-2-pyridyl]-6-(1-propyl-4-pyrazolylamino)-1,2-dihydro-3H-1,2,5,7-tetraazainden-3-one], the half-maximal inhibitory concentration (IC50) in test [1] (setting [4]) is < 0.01 µM; in test [2] (setting [5]) it was > 0.5 µM. Further, in test [3] (setting [6]), the EC50 was > 1 µM.

On to `C=CCn1c(=O)c2cnc(Nc3cnn(C(C)C)c3)nc2n1-c1cccc(OC2CC3CCCC(C2)N3C)n1` (stereo not drawn) [Compound 193, 2-allyl-6-(1-isopropyl-4-pyrazolylamino)-1-{6-(9-methyl-9-azabicyclo[3.3.1]non-3-yloxy)-2-pyridyl}-1,2-dihydro-3H-1,2,5,7-tetraazainden-3-one], for which the values for the IC50 in test [1] (setting [4]) and in test [2] (setting [5]) were < 0.01 µM and > 0.5 µM, respectively. The EC50 in test [3] (setting [6]) was in the range of 0.1 to 0.5 µM.

In the case of `C=CCn1c(=O)c2cnc(Nc3ccc(Cl)cc3)nc2n1-c1cccc(OC2CCCNC2)n1` (stereo in doubt) [Compound 159, 6-[(4-chlorophenyl)amino]-1-{6-[(3R)-piperidin-3-yloxy]pyridin-2-yl}-2-(prop-2-en-1-yl)-1H,2H,3H-pyrazolo[3,4-d]pyrimidin-3-one], the figures for the IC50 in test [1] (setting [4]) and in test [2] (setting [5]) were < 0.01 µM and 0.02 to 0.1 µM, respectively. Moreover, the EC50 in test [3] (setting [6]) is 0.5 to 1 µM.

Take `C=CCn1c(=O)c2cnc(Nc3ccc(Cl)cc3)nc2n1-c1cccc(O[C@@H]2CCCN(C)C2)n1` [Compound 187, 1-{6-[(R)-1-methyl-3-piperidyloxy]-2-pyridyl}-2-allyl-6-(p-chlorophenylamino)-1,2-dihydro-3H-1,2,5,7-tetraazainden-3-one]: the IC50 is < 0.01 µM in test [1] (setting [4]) and 0.1 to 0.5 µM in test [2] (setting [5]). Besides, in test [3] (setting [6]), the EC50 fell in the range of 0.5 to 1 µM.

`C=CCn1c(=O)c2cnc(Nc3ccc(C#N)cc3)nc2n1-c1cccc(OC2CCNCC2)n1` [Compound 300, p-{2-allyl-3-oxo-1-[6-(4-piperidyloxy)-2-pyridyl]-1,2-dihydro-3H-1,2,5,7-tetraazainden-6-ylamino}benzonitrile]: the half-inhibitory concentration (IC50) in test [1] (setting [4]) was < 0.01 µM; in test [2] (setting [5]), 0.02 to 0.1 µM. Besides, the EC50 in test [3] (setting [6]) was 0.1 to 0.5 µM.

Turning to `C=CCn1c(=O)c2cnc(Nc3ccc(Cl)c(Cl)c3)nc2n1-c1cccc(NC2CCN(C)CC2)n1` [Compound 151, 2-allyl-6-(3,4-dichlorophenylamino)-1-[6-(1-methyl-4-piperidylamino)-2-pyridyl]-1,2-dihydro-3H-1,2,5,7-tetraazainden-3-one], the values for the IC50 in test [1] (setting [4]) and in test [2] (setting [5]) were < 0.01 µM and 0.1 to 0.5 µM, respectively. Also, the EC50 in test [3] (setting [6]) fell in the range of 0.1 to 0.5 µM.

In the case of `C=CCn1c(=O)c2cnc(Nc3ccc4c(cnn4C)c3)nc2n1-c1cccc(OC2CCN(C)C(C)(C)C2)n1` (stereo not drawn) [Compound 343, 2-allyl-6-((1-methyl-1H-indazol-5-yl)amino)-1-(6-((1,2,2-trimethylpiperidin-4-yl)oxy)pyridin-2-yl)-1,2-dihydro-3H-pyrazolo[3,4-d]pyrimidin-3-one], the figures for the IC50 in test [1] (setting [4]) and in test [2] (setting [5]) were < 0.01 µM and 0.1 to 0.5 µM, respectively. Further, the EC50 in test [3] (setting [6]) is 0.1 to 0.5 µM.
